One data set in a line: in vitro. The conditions noted are these: human. As for the experimental part:
(§1) Briefly, HepG2 cells are seeded at 4×10^4/well on a 96-well plate in 100 μL growth medium and incubated for 24 h at 37° C. The medium is removed and the cells are washed with PBS. Treatments of fruit extracts or antioxidant compounds in 100 μL treatment medium (Williams' Medium E supplemented with 2 mM L-glutamine and 10 mM Hepes) are applied to the cells and the plates are incubated at 37° C. for 24 h. The treatment medium is removed and the cells are washed with PBS. A volume of 50 μL/well methylene blue staining solution (98% HBSS, 0.67% glutaraldehyde, 0.6% methylene blue) is applied to each well and the plate is incubated at 37° C. for 1 h.
(§2) Excess dye is removed by immersing the plate in fresh deionized water until the water appears clear. The excess water should be tapped out of the wells and the plate allowed to air-dry briefly before addition of 100 μL elution solution (49% PBS, 50% ethanol, 1% acetic acid) to each well. The microplate is then placed on a bench-top shaker for 20 minutes to allow uniform elution. The absorbance is read at 570 nm with blank subtraction using, for example a MRX II DYNEX spectrophotometer (DYNEX Inc., Chantilly, Va.). Concentrations of pure compounds or fruit extracts that decrease the absorbance by more than 10% when compared to the control are considered to be cytotoxic.
(§3) Cytotoxicity was measured using the method of Oliver et al. (31) with modifications by our laboratory (32). […] The medium was removed and the cells were washed with PBS. Treatments of fruit extracts or antioxidant compounds in 100 μL treatment medium (Williams' Medium E supplemented with 2 mM L-glutamine and 10 mM Hepes) were applied to the cells and the plates were incubated at 37° C. for 24 h. The treatment medium was removed and the cells were washed with PBS. A volume of 50 μL/well methylene blue staining solution (98% HBSS, 0.67% glutaraldehyde, 0.6% methylene blue) was applied to each well and the plate was incubated at 37° C. for 1 h. The dye was removed and the plate was immersed in fresh deionized water three times, or until the water was clear. The water was tapped out of the wells and the plate was allowed to air-dry briefly before 100 μL elution solution (49% PBS, 50% ethanol, 1% acetic acid) was added to each well. The microplate was placed on a bench-top shaker for 20 minutes to allow uniform elution. The absorbance was read at 570 nm with blank subtraction using the MRX II DYNEX spectrophotometer (DYNEX Inc., Chantilly, Va.). Concentrations of pure compounds or fruit extracts that decreased the absorbance by more than 10% when compared to the control were considered to be cytotoxic.
(§4) The median cytotoxic concentration (CC50) was calculated for each fruit.
(§5) Briefly, HepG2 cells were seeded at 4×10^4/well on a 96-well plate in 100 μL growth medium and incubated for 24 h at 37° C. The medium was removed, and the cells were washed with PBS. Flavonoids in 100 μL growth medium were applied to the cells, and the plates were incubated at 37° C. for 24 h. The medium was removed, and the cells were washed with PBS before a volume of 50 μL/well methylene blue staining solution (98% HBSS, 0.67% glutaraldehyde, 0.6% methylene blue) was applied to each well, and the plate was incubated at 37° C. for 1 h. The dye was removed, and the plate was immersed in fresh deionized water until the water was clear. The water was tapped out of the wells, and the plate was allowed to air-dry briefly before 100 μL of elution solution (49% PBS, 50% ethanol, 1% acetic acid) was added to each well. The microplate was placed on a benchtop shaker for 20 min to allow uniform
(§6) elution. The absorbance was read at 570 nm with blank subtraction using the MRX II Dynex spectrophotometer (Dynex Inc., Chantilly, Va.). The median cytotoxic concentration (CC50) was calculated for each flavonoid.

Data set [1] concerns HepG2 cells. The data set can be described thus: in vitro. How it is done: as §1, §2, §3, §4, §5, §6
The test system of data set [2] is HepG2 cells. The experiment in a line: Cellular antioxidant activity (CAA) assay: inhibition of peroxyl radical-induced DCFH oxidation. It is filed as cell-based, human. The note with it: for EC50: Homo sapiens; for cellular antioxidant activity, result in words: no PBS wash protocol. How it is done:
Cells (e.g., human hepatocellular carcinoma cells; HepG2) are seeded at a density of e.g., 6×10^4/well on a 96-well microplate in 100 μL growth medium/well. It is preferred that only the inside wells of e.g., a 96-well microplate are used for the assay, since the outer wells have increased variation compared to that of the inner wells. Twenty-four hours after seeding the growth medium is removed and the wells are washed with PBS. Triplicate wells are treated for 1 h with 100 μL of a test compound (e.g., pure phytochemical compounds or fruit extracts) plus 25 μM DCFH-DA dissolved in treatment medium.
600 μM ABAP is then applied to the cells in 100 μL HBSS and the 96-well microplate is placed into a plate reader e.g., Fluoroskan Ascent FL plate-reader (ThermoLabsystems, Franklin, Mass.) at 37° C. Emission at 538 nm is measured with excitation at 485 nm, for example every 5 min for 1 h. Each plate should include triplicate control and blank wells: control wells contain cells treated with DCFH-DA and oxidant; blank wells contain cells treated with dye and HBSS without oxidant.
A test compound is assayed in multiple wells of e.g., a 96-well cell culture plate. Some wells are washed with 100 μL of phosphate-buffered saline (PBS) prior to the addition of ABAP, while other wells were not washed prior to the addition of ABAP. It was noted that the measured antioxidant activity of some fruit extracts (e.g., blueberries) was different when a PBS wash was used compared to when there was no PBS wash (see Table 2; FIGS. 3 and 4). This is likely due to non-specific binding of certain antioxidant compounds to the outer membrane, or a reduced uptake of the compound, thus the ratio of antioxidant activity values obtained with a PBS wash compared to a non-PBS wash indicates the bioavailability of the test compound. In order to accurately measure the intracellular antioxidant activity of a test compound, a PBS wash prior to the addition of a peroxyl initiator (e.g, ABAP) is necessary. The values obtained for cells assayed using a PBS wash should be compared to values obtained for the same cells assayed without a PBS wash. One of skill in the art can plan and perform experiments on a test compound in the presence and absence of a PBS wash, in order to accurately assess the intracellular antioxidant capacity of the test compound.
After blank subtraction from the fluorescence readings, the area under the curve of fluorescence versus time is integrated to calculate the cellular antioxidant activity (CAA) value at each concentration of pure phytochemical compound or fruit extract as follows:
where ∫SA is the integrated area under the sample fluorescence versus time curve and ∫CA is the integrated area from the control curve. The median effective dose (EC50) was determined for the pure phytochemical compounds and fruit extracts from the median effect plot of log (fa/fu) vs. log (dose), where fa is the fraction affected and fu is the fraction unaffected by the treatment. To quantify intra-experimental variation, the EC50 values are stated as mean±SD for triplicate sets of data obtained from the same experiment. Inter-experimental variation is obtained for some representative pure phytochemical compounds and fruit extracts by averaging the fluorescence values from triplicate wells in each trial to obtain one EC50 value per experiment and calculating the mean±SD for at least four trials. In each experiment, a standard is used, for example quecetin, thus permitting the cellular antioxidant activities for a test compounds to be expressed as μmol quercetin equivalents (QE)/100 μmol compound. Fruit extracts are expressed as μmol QE/100 g fruit. In order to compare the antioxidant quality of different fruits, cellular antioxidant activity (CAA) is also calculated as μmol QE/100 μmol total phenolics.
Human hepatocellular carcinoma HepG2 cells were seeded at a density of 6×10^4/well on a 96-well microplate in 100 μL growth medium/well. […]

Where [3] appears, read: HepG2, Example 1, Table 1, PBS wash, pure phytochemical compounds, mean ± SD, n=3, read-out: EC50 for inhibition of peroxyl radical-induced DCFH oxidation.
Where [4] appears, read: HepG2, Example 1, Table 1, no PBS wash, pure phytochemical compounds, mean ± SD, n=3, read-out: EC50 for inhibition of peroxyl radical-induced DCFH oxidation.

Where two headings read alike, the source gives them in different places.

By EC50 is commonly meant the midpoint of the concentration-response curve. Take `Oc1cc(O)c2c(c1)O[C@H](c1ccc(O)c(O)c1)[C@H](O)C2` [Epicatechin, (−)-epicatechin]: the CC50 at 24 h in the data set “in vitro” was greater than 1000 µM. Besides, the “Cytotoxicity (cytotoxic concentration)” value with HepG2 cells [1] (human, 24 h) is greater than 500 µM. Further, the CAA in the data set on HepG2 cells [2] (Example 3, Table 7, no PBS wash) is on record as 1.9 ± 0.2 μmol of QE/100 μmol. Also, the EC50 in the data set with HepG2 cells [2] (setting [3]) is greater than 600 µM; in the data set with HepG2 cells [2] (setting [4]), greater than 200 µM; in the data set on HepG2 cells [2] (HepG2, Example 3, Table 7, PBS wash, flavonoids, mean ± SD, n=3, read-out: EC50), greater than 800 µM; in the data set on HepG2 cells [2] (HepG2, Example 3, Table 7, no PBS wash, flavonoids, mean ± SD, n=3, read-out: EC50) it was 457 ± 47 µM; with HepG2 cells [2] (HepG2, Example 3, text, no PBS wash, read-out: EC50), 457 ± 47 µM.
Turning to `O=C(O)c1cc(O)c(O)c(O)c1` [Gallic acid], the “Cytotoxicity (cytotoxic concentration)” value in the data set on HepG2 cells [1] (human, 24 h) was greater than 500 µM. In the data set with HepG2 cells [2] (Example 1, no PBS wash, pure compounds, EC50 converted to quercetin equivalents), the CAA value was found to be 9.08±0.95 μmol QE/100 μmol. For the same molecule, the “percent of the antioxidant activity of quercetin in the CAA assay” value in the data set on HepG2 cells [2] (Example 1, summary statement) is on record as “less than ten percent”. In addition, the EC50 with HepG2 cells [2] (setting [3]) was 335 ± 26 µM; in the data set on HepG2 cells [2] (setting [4]) it was 65.4 ± 7.3 µM; in the data set with HepG2 cells [2] (HepG2, Table 2, no PBS wash, mean ± SD over the trials, read-out: Interexperimental EC50) it was 64.3 ± 10.7 µM; with HepG2 cells [2] (HepG2, Table 2, no PBS wash, one line per trial (trials 1-5), n=3, read-out: Intraexperimental EC50), 65.4 ± 7.3 µM; in the data set with HepG2 cells [2] (HepG2, Table 3, PBS wash, mean ± SD over the trials, read-out: Interexperimental EC50) it was 318 ± 36 µM; in the data set with HepG2 cells [2] (HepG2, Table 3, PBS wash, one line per trial (trials 1-5), n=3, read-out: Intraexperimental EC50), 289 ± 12 µM.
Turning to `O=C(CCc1ccc(O)cc1)c1c(O)cc(O)cc1O` [Phloretin, phloretin], the “Cytotoxicity (cytotoxic concentration)” value with HepG2 cells [1] (human, 24 h) was determined as 25 µM. Moreover, the EC50 in the data set on HepG2 cells [2] (setting [3]) and in the data set on HepG2 cells [2] (setting [4]) was greater than 25 µM in each case. Moreover, the “cellular antioxidant activity, result in words” value with HepG2 cells [2] is reported as “activity only at doses much higher than their cytotoxic concentrations”.
Take `Oc1ccc(C=Cc2cc(O)cc(O)c2)cc1` [Resveratrol, resveratrol]: the “Cytotoxicity (cytotoxic concentration)” value in the data set with HepG2 cells [1] (Example 1, dose at which the cell number is reduced by more than 10% after 24 h treatment) worked out at 40 µM. Moreover, the EC50 in the data set on HepG2 cells [2] (setting [3]) and in the data set with HepG2 cells [2] (setting [4]) was greater than 40 µM throughout. In addition, the “cellular antioxidant activity, result in words” value in the data set on HepG2 cells [2] was “activity only at doses much higher than their cytotoxic concentrations”.

Source of the values: patent publication US20110313672A1, “CELLULAR ANTIOXIDANT ACTIVITY (CAA) ASSAY” (CORNELL UNIVERSITY, priority 2007, published 2011).
